Each structure is given as a SMILES string. pEC50: −log10 of the molar value. Active and inactive are the calls of the source.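 The calls were made as follows: active = compound that raises the TRPC4 channel signal at some tested dose, with a fitted concentration curve; inactive = the rest.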

One assay concerns the target Transient receptor potential cation channel C4 (TRPC4), mouse. Briefly: potentiators of mouse TRPC4 calcium response – cell-based, HEK293 TRPC4, Fluo-4 calcium flux, dose response (AID 493223). The note with it: HEK293 TRPC4 cells, Fluo-4 calcium fluorescence ratio.
With `CN(C)CCN(C)Cc1cc(Br)ccc1O`, the pEC50 is 5.75.
In the case of `CCN1CCN(Cc2cc(Br)ccc2O)CC1`, the pEC50 is 6.07.

Still in this assay, the particulars now being: HEK293 TRPC4 cells, Fluo-4 calcium fluorescence ratio; at 20 µM (top of the series).
Take `Oc1ccc(Br)cc1CN1CCC(N2CCOCC2)CC1`: the “fluorescence ratio, higher = potentiation” value (from here on “fluorescence ratio”) is “inactive”.
Still for that read-out and setting: with `Oc1ccc(F)cc1CN1CCN(c2ccc(F)cc2F)CC1` the entry was “inactive”; with `COc1ccc(N2CCN(Cc3cc(F)ccc3O)CC2)cc1`, “inactive”.
In the case of `COc1ccc(N2CCN(Cc3cc(Cl)ccc3O)CC2)cc1`, the “fluorescence ratio” value was “inactive”.
The same measure, in the same setting: the entry for `Oc1ccc(F)cc1CN1CCN(c2ncccn2)CC1` is “inactive”; for `CN1CCN(Cc2cc(Cl)ccc2O)CC1` it is “inactive”.
`Oc1ccc(F)cc1CN1CCN(CC2CCCO2)CC1` (stereo not drawn): the “fluorescence ratio” value is “inactive”.
Still for that read-out and setting: with `CN1CCN(Cc2cc(F)ccc2O)CC1` the entry was “inactive”.
On the same count and under the same terms, the entry for `Oc1ccc(F)cc1CN1CCCCC1` is “inactive”; for `Oc1ccc(Br)cc1CN1CCCCC1` it is “inactive”; for `Oc1ccc(Br)cc1CN1CCOc2ccccc21` it is “inactive”.
The same measure, in the same setting: the entry for `Oc1ccc(Br)cc1CN1CCN(c2ccccn2)CC1` is “inactive”; for `Oc1ccc(Cl)cc1CN1CCC(N2CCOCC2)CC1` it is “inactive”.
As for `CC1CC(C)CN(Cc2cc(F)ccc2O)C1` (stereo not drawn), the “fluorescence ratio” value was “inactive”.
On the same count and under the same terms, the entry for `COc1ccc(N2CCN(Cc3cc(Br)ccc3O)CC2)cc1` is “inactive”.
For `Oc1ccc(Cl)cc1CN1CCOc2ccccc21`, the “fluorescence ratio” value was “inactive”.
On the same count and under the same terms, the entry for `CC1CCN(Cc2cc(Cl)ccc2O)CC1` is “inactive”.
On the same count and under the same terms, the entry for `Oc1ccc(F)cc1CN1CCCC1` is “inactive”; for `Oc1ccc(Br)cc1CN1CCN(c2ccncc2)CC1` it is “inactive”; for `Oc1ccc(Br)cc1CN1CCN(CC2CCCO2)CC1` (stereo not drawn) it is “inactive”.
The same measure, in the same setting: the entry for `Oc1ccc(F)cc1CN1CCOc2ccccc21` is “inactive”; for `CC1CCN(Cc2cc(Br)ccc2O)CC1` it is “inactive”; for `Oc1ccc(F)cc1CN1CCN(c2ccccn2)CC1` it is “inactive”.
With `CCN(CC)Cc1cc(Br)ccc1O`, the “fluorescence ratio” value was “inactive”.
For the compound `Oc1ccc(Br)cc1CN1CCOCC1`, the “fluorescence ratio” value is “inactive”.
On the same count and under the same terms, the entry for `CC1CCN(Cc2cc(F)ccc2O)CC1` is “inactive”; for `COCCN(C)Cc1cc(F)ccc1O` it is “inactive”; for `CN1CCN(Cc2cc(Br)ccc2O)CC1` it is “inactive”.
Still for that read-out and setting: the entry for `Oc1ccc(F)cc1CN1CCN(c2ccncc2)CC1` is “inactive”; for `CCN(CC)Cc1cc(Cl)ccc1O` it is “inactive”.
Regarding `COCCN(C)Cc1cc(Cl)ccc1O`, the “fluorescence ratio” value is “inactive”.
The same measure, in the same setting: the entry for `Oc1ccc(Cl)cc1CN1CCN(c2ncccn2)CC1` is “inactive”.
Take `Oc1ccc(Br)cc1CN1CCN(c2ncccn2)CC1`: the “fluorescence ratio” value is “inactive”.
Same read-out and setting: the entry for `Oc1ccc(Cl)cc1CN1CCCCC1` is “inactive”; for `Oc1ccc(F)cc1CN1CCOCC1` it is “inactive”.
The same measure, in the same setting: the entry for `CC1CC(C)CN(Cc2cc(Cl)ccc2O)C1` (stereo not drawn) is “inactive”; for `CC(C)(C)OC(=O)N1CCN(Cc2cc(Cl)ccc2O)CC1` it is “inactive”.
On the same count and under the same terms, with `CCN(CC)Cc1cc(F)ccc1O` the entry was “inactive”; with `Oc1ccc(Br)cc1CN1CCCC1`, “inactive”.
As for `Oc1ccc(F)cc1CN1CCC(N2CCOCC2)CC1`, the “fluorescence ratio” value is “inactive”.
Still for that read-out and setting: the entry for `COCCN(C)Cc1cc(Br)ccc1O` is “inactive”.
The same measure, in the same setting: the entry for `Oc1ccc(Cl)cc1CN1CCN(c2ccc(F)cc2F)CC1` is “inactive”; for `Oc1ccc(Cl)cc1CN1CCCC1` it is “inactive”.
On to `CN(C)CCN(C)Cc1cc(F)ccc1O`, for which the “fluorescence ratio” value is “inactive”.
Same read-out and setting: with `CC(C)(C)OC(=O)N1CCN(Cc2cc(F)ccc2O)CC1` the entry was “inactive”.
On the same count and under the same terms, the entry for `Oc1ccc(Br)cc1CN1CCN(c2ccc(F)cc2F)CC1` is “inactive”; for `Oc1ccc(Cl)cc1CN1CCN(CC2CCCO2)CC1` (stereo not drawn) it is “inactive”; for `Oc1ccc(Cl)cc1CN1CCN(c2ccncc2)CC1` it is “inactive”.
Same read-out and setting: with `CC1CC(C)CN(Cc2cc(Br)ccc2O)C1` (stereo not drawn) the entry was “inactive”; with `Oc1ccc(Cl)cc1CN1CCN(c2ccccn2)CC1`, “inactive”.
With `CC(C)(C)OC(=O)N1CCN(Cc2cc(Br)ccc2O)CC1`, the “fluorescence ratio” value was “inactive”.

The record behind these values is PubChem BioAssay AID493223 (Johns Hopkins Ion Channel Center, 2011).
